How the values were obtained:
[1] = molecular target: T1, human liver cytosolic AOX1 (Homo sapiens, UniProt Q06278); assay type: biochemical; parameters: Enzymatic reaction was initiated by adding human liver cytosol (100 μg); tissue Corning, Inc. (Gentest brand) 452115; host or cells: human liver cytosol, pool of 150 donors; details: 5 mM agent, 10 min; erlotinib 1.5 μM, analogs 2 μM
T1 sequence (Q06278 1-1338): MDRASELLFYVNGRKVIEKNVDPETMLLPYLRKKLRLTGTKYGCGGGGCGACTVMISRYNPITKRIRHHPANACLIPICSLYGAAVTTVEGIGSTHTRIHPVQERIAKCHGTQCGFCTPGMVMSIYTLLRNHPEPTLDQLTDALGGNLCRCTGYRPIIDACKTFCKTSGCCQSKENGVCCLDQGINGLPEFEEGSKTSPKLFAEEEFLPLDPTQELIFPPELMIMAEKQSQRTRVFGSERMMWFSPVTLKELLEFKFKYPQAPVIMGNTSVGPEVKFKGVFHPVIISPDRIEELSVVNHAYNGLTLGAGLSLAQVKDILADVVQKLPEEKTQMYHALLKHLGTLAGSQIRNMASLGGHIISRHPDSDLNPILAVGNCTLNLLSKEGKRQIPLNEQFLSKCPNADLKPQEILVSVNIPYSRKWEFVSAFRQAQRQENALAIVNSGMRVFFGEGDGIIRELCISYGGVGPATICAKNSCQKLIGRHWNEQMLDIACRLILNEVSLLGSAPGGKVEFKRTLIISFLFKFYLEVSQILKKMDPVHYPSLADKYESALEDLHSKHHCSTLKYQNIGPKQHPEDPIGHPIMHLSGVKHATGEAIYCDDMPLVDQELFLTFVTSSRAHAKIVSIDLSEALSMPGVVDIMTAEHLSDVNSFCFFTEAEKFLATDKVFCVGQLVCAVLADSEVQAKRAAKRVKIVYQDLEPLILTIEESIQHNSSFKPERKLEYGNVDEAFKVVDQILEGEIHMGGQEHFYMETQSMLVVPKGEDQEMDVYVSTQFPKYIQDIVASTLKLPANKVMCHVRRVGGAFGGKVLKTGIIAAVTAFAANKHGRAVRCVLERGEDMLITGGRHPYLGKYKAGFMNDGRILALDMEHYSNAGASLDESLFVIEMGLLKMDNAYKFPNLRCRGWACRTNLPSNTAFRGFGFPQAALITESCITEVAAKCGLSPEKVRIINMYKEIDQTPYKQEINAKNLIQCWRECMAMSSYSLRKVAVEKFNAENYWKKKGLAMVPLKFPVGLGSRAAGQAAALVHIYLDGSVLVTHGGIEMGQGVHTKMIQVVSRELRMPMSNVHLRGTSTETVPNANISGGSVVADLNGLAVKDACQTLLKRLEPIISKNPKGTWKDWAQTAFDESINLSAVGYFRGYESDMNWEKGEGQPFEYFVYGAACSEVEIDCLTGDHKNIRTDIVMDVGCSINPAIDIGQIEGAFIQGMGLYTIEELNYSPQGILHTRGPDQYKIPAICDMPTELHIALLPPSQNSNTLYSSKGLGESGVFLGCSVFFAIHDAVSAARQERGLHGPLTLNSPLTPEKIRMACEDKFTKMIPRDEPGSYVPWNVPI
Protocol: Potassium ferricyanide (5 mM; oxidizing agent), sodium dithionite (5 mM; reducing agent), or potassium phosphate buffer (vehicle for oxidizing/reducing agent) was preincubated with human liver cytosol (200 μg protein) in a total volume of 100 μL at 37 °C for 10 minutes. […] After a 0 or 6-minute preincubation duration, an aliquot (10 μL) of the secondary incubation mixture was transferred to a prewarmed tertiary incubation mixture (total volume of 200 μL) containing potassium phosphate buffer and carbazeran (15 μM), which yielded a 20-fold dilution of the secondary incubation mixture. The tertiary incubation mixture was incubated for 5 minutes at 37 °C before the enzymatic reaction was terminated with 200 μL of ice-cold acetonitrile containing carbazeran-d4 (2.5 nM final concentration; internal standard for 4-oxo-carbazeran). The residual AOX1 enzyme activity was determined by the carbazeran 4-oxidation assay.

[2] = parameters: method as in PMID 26330331; details: mice, oral dosing; cited from earlier work
[3] = clinical phase I study; cited from earlier work
[4] = ref erlotinib (TARCEVA), package insert, 2016; cited from earlier work
AOX1 = details: zoniporide as AOX substrate; cited from earlier work
human recombinant AOX1 = molecular target: T2, human recombinant AOX1 (Homo sapiens, UniProt Q06278); experiment: Time-dependent inactivation of carbazeran 4-oxidation by human recombinant AOX1; assay type: biochemical; details: each 10 μM (raloxifene 0.02 μM), 30-minute preincubation, vs vehicle control without preincubation
T2 construct: purchased Cypex Ltd CYP150
T2 sequence (Q06278 1-1338): T1 sequence (Q06278 1-1338)
Protocol: (§1) Carbazeran 4-oxidation and O^6-benzylguanine 8-oxidation were deployed as AOX1-selective catalytic markers.[27] The assay conditions (amount of cytosolic protein, incubation time, and substrate concentration) for carbazeran 4-oxidation catalyzed by human recombinant AOX1 and human/rat/mouse liver cytosols were optimized previously.[7]^,[25]
(§2) Enzymatic reaction was initiated by adding human liver cytosol (100 μg). After the specified preincubation duration, an aliquot (10 μL) of the preincubation mixture was transferred to 190 μL of a prewarmed (for 3 minutes at 37 °C) secondary incubation mixture (total volume of 200 μL) containing potassium phosphate buffer and carbazeran (15 μM) or O^6-benzylguanine (150 μM), which yielded a 20-fold dilution of the primary incubation mixture. The secondary incubation mixture was incubated for 5 minutes at 37 °C before the enzymatic reaction was terminated with 200 μL of ice-cold acetonitrile containing carbazeran-d4 (2.5 nM final concentration; internal standard for 4-oxo-carbazeran) or tolbutamide (25 nM final concentration; internal standard for 8-oxo-O^6-benzylguanine). Each sample was immediately mixed by vortex, placed on ice, centrifuged at 16,000g for 15 minutes at 4 °C and stored at –30 °C until ultra-high performance liquid chromatography–tandem mass spectrometry (UPLC-MS/MS) analysis. For enzyme inactivation assays involving rat and mouse liver cytosol and recombinant AOX1 assays, the experimental conditions were similar to those of human liver cytosol, except that the amount of cytosolic protein was 200 μg (rat) and 150 μg (mouse), respectively, and the incubation time of the secondary incubation mixture was 60 minutes. For the recombinant AOX1 enzyme assay, the amount of enzyme was 100 μg, the incubation time of the secondary incubation mixture was 15 minutes, and the total volume of the primary and secondary incubation mixtures was reduced to 100 μL.
(§3) An aliquot (10 μL) of the primary incubation mixture was transferred to a secondary incubation mixture containing carbazeran (15 μM) and incubated for (A) 180, (B) 5, or (C, D) 120 minutes.

AOX1 (rat liver cytosol) = experiment: Inactivation of carbazeran 4-oxidation by rat liver cytosol; assay type: biochemical; details: 10 μM (raloxifene 0.02 μM), 30-minute preincubation
Protocol: as §1, §2, §3

## C#Cc1cccc(Nc2nc(C)nc3cc(OCCOC)c(OCCOC)cc23)c1 [2-Methylerlotinib, 2-methylerlotinib]
[1]
  effect of preincubating cytosol with potassium ferricyanide or sodium dithionite on AOX1 inactivation: neither sodium dithionite nor potassium ferricyanide affected

## C#Cc1cccc(Nc2ncnc3cc(OCCOC)c(OCCOC)cc23)c1 [Erlotinib]
[2]
  elimination half-life: 42 min
[3]
  effect on plasma concentration of OSI-930: increase
[4]
  Plasma fu: e Cmax,u = plasma fu × Cmax. Plasma fu = 0.07, based on erlotinib (TARCEVA), package insert, 2016. For O-desmethylerlotinib and O-didesmethylerlotinib, the fu is assumed to be similar to the parent drug.
AOX1
  Ki: 720 nM
[1]
  effect of preincubating cytosol with potassium ferricyanide or sodium dithionite on AOX1 inactivation: neither sodium dithionite nor potassium ferricyanide affected

## C#Cc1cccc(Nc2ncnc3cc(OCCOC)c(OCCO)cc23)c1 [O-Desmethylerlotinib, O-desmethylerlotinib]
Human recombinant AOX1
  decrease in carbazeran 4-oxidation: 91%
AOX1 (rat liver cytosol)
  decrease in carbazeran 4-oxidation: 92%–97%

## C#Cc1cccc(Nc2ncnc3cc(OCCO)c(OCCO)cc23)c1 [O-Didesmethylerlotinib, O-didesmethylerlotinib]
Human recombinant AOX1
  decrease in carbazeran 4-oxidation: 94%
AOX1 (rat liver cytosol)
  decrease in carbazeran 4-oxidation: 92%–97%
